Measurements reported in US9770430B2, “Desferrioxamine-metal complexes for the treatment of immune-related disorders” (priority 2009, dated 2017).

What was measured:
[1] = system: lens proteins; experiment: Lens proteins of high energy diet fed sand rats (total protein, Trx, TrxR, actin, Msr activity, ferritin); format: in vivo, sand rat (Psammomis obesus)
Method: Ferritin concentration was quantified using an indirect ‘sandwich’ ELISA assay in accordance with a procedure developed previously in our laboratory. Briefly, ELISA 96-well micro plates were pre-coated with goat anti-human L-ferritin antibody. Rabbit anti-human H-ferritin was used as the secondary antibody. Plates were treated with goat anti-rabbit IgG conjugated with β-galactosidase. Chlorophenol Red-β-D-Galactopyranoside was then added and the plates analyzed using a microplate reader with a test (570 nm) and reference (630 nm) filters.
Quantification of the activity of methionine-sulfoxide reductase (Msr) was carried out by incubation the tissue lysates with dabsyl-methionine sulfoxide for 30 min at 37° C., followed by analysis of the reduced product (dabsyl methionine) by HPLC-spectrophotometric detection at 436 nm Assay: total volume 100 μl, including 200 μM Dabsyl-met (O) (as a substrate). The reaction mixture contained also 20 mM DTT, buffer, ˜100 μg protein. The incubation (reaction) was stopped by adding 100 μl of acetonitrile, spinning down, and discarding the protein fraction. The chromatography was run on a 150 mm 3 μm C-18 column, using a gradient (A to B). A=19 g of sodium acetate, pH 6.0 plus 0.5 ml of triethylamine, in one liter of solution; B=acetonitrile (pure). The substrate, dabsyl-Met (0) was prepared as described [Moskovitz, J. et al. (2001) Proc Natl Acad Sci USA, 98 (23): p. 12920-5; Moskowitz et al. (1997) Proc Natl Acad Sci USA, 94 (18): p. 9585-93].
(§1) Nineteen sand rats were divided into three groups. Group I (n=4) received a standard diet and was used as a control. Groups II (n=7) and III (n=8) received a high energy diet, leading to diabetes development. Group III was treated with 2.5 mg Zn-DFO i.p. per kg body weight three times a week, while Group II was injected with saline according to the same pattern. After the blood glucose and body weight monitoring for 63 days, glucose tolerance test was performed and blood level of 2,3-DHBA and catechols was also measured. As previously done, cataract formation was tested as well. The retina and lens were collected for biochemical analysis of the concentration of ferritin, thioredoxin-1 (Trx) and thioredoxin reductase-1 (TrxR), total lens protein and methionine sulfoxide reductase (Msr) activity. The concentration of actin, Trx and TrxR were measured by Western Blotting, and the activity of Msr was analyzed by HPLC as described.

[2] = system: salicylate hydroxylation to 2,3-DHBA; experiment: 2,3-DHBA assay in blood of high energy diet fed sand rats; format: in vivo, sand rat (Psammomis obesus); details: 2.5 mg/kg i.p. three times a week
Method: To measure 2,3-DHBA the animals were injected i.p. with 100 mg/kg salicylate in saline buffer. As a product of salicylate hydroxylation, the 2,3-DHBA was quantified using HPLC coupled with electrochemical detection (HPLC-ECD), using a Varian 5000 liquid chromatograph (Varian Analytical Instruments, Walnut Creek, Calif., USA) equipped with a Rheodyne 7125 sample injector (20 μl loop; Rheodyne L. P., Rohnert Park, Calif., USA). The column used for separation of salicylate and DHBA was a 250×4 mm LiChrospher 100RP-18, 5 μm (Merck, Darmstadt, Germany). The chromatograms were recorded using a PC-based data acquisition and processing system (EZChrom Elite, San-Ramon, Calif., USA).
as §1, with “The retina and lens were collected for biochemical analysis of the concentration of ferritin, thioredoxin-1 (Trx) and thioredoxin reductase-1 (TrxR), total lens protein and methionine sulfoxide reductase (Msr) activity.” left out

[3] = pH limit of the complex solution during preparation (loss of biological activities); format: physicochemical; details: pH above 6.1; solution reacts with air-containing CO2
[4] = Western Blotting, diabetes-induced decrease

CC(=O)N(O)CCCCCNC(=O)CCC(=O)N([O-])CCCCCNC(=O)CCC(=O)N([O-])CCCCCN.[Zn+2] [Zn-DFO, Zinc-desferrioxamine]
lens Msr activity ([1]; HPLC, diabetes-induced decrease): partial, but statistically significant restoration | lens concentration of Trx [1, 4]: partial, but statistically significant restoration | lens concentration of TrxR [1, 4]: partial, but statistically significant restoration | lens concentration of actin [1, 4]: partial, but statistically significant restoration | total lens protein concentration (Bradford assay) ([1]; diabetes-induced decrease): partly prevented this decrease | decrease in lens ferritin level ([1]; versus diabetic animals): 3.8 fold | 2,3-DHBA blood concentration [2]: maintained almost baseline values | effect of higher pH on the Zn-DFO solution [3]: marked loss of the biological activities
